Results from patent publication US20210379078A1, “Killing Senescent Cells And Treating Senescence-Associated Conditions Using A Bcl Inhibitor And An Mcl-1 Inhibitor” (Unity Biotechnology, Inc., priority 2018, published 2021).

Key:
[1] = cited from earlier work
BIM-Bcl-xL interactions = target: T1, BIM-Bcl-xL interactions (Mus musculus, UniProt Q64373); assay: Target engagement co-immunoprecipitation with anti-BIM, western blot for Bcl-xL; assay type: cell-based
T1 construct: Lysates for co-IP experiments were prepared from: (a) lungs from mice; endogenous in cells; host or cells: mouse lung tissue (oral aspiration dosing) and mouse bronchiotracheal epithelial (MBE) cells
Experimental: Immunoprecipitations were performed using rabbit monoclonal anti-BIM (C34C5) antibodies (Cell Signaling Technology®) bound by Protein A-coated magnetic beads (Life Technologies®). 100 ul lysate was incubated with 10 μL of magnetic beads (pre-coated with 2 μg of antibody) for 1 hour at 4° C. in a Thermal Mixer at 1300 rpm (VWR®). After immunocapture, samples were washed three times with cold lysis buffer and eluted from the beads using non-reducing NuPAGE LDS Sample Buffer® (Life Technologies®). […]

Mcl-1 binding to BIM = assay: Target engagement co-immunoprecipitation with anti-BIM, western blot for Mcl-1; assay type: cell-based; conditions: OA-dosed mouse lungs (8 hours) and MBE cells (4 hours)
Excerpt: A target engagement assay was developed to determine Bcl-xL and Mcl-1's respective interaction with BIM both in vivo in mice, or cells in culture, in order to predict senolysis. The respective binding pockets of Bcl-xL and Mcl-1 proteins under normal conditions sequestrate pro-apoptotic proteins, such as BIM. Co-immunoprecipitation (co-IP) was employed to study protein-protein interactions in order to determine if candidate senolytics can effectively displace Bcl-xL or Mcl-1 from BIM protein.
Lysates for co-IP experiments were prepared from: (a) lungs from mice that had been dosed for 8 hours by oral aspiration (OA) with either a candidate senolytic Bcl (Compound 1) or Mcl-1 inhibitor (S-63845), or a control vehicle treatment; or (b) mouse bronchiotrachael epithelial (MBE) cells, dosed for 4 hours with the same Bcl or Mcl-1 inhibitor, using a non-denaturing lysis buffer: PBS pH 7.4, 2% CHAPS, supplemented with a protease inhibitor cocktail (Roche®)). For every 0.25 gram of tissue 1 mL of lysis buffer was added to the sample, and next tissue was homogenized using a Precellys 24 (Bertin Technologies®; 3 cycles of 20 s and 20 s pause). Homogenates were cleared by centrifugation at 13000 g at 4° C. for 10 min, and the supernatant lysate was transferred to new tubes, aliquoted, flash-frozen using liquid nitrogen, and stored at −80° C. […]

T1 sequence (Q64373 whole entry): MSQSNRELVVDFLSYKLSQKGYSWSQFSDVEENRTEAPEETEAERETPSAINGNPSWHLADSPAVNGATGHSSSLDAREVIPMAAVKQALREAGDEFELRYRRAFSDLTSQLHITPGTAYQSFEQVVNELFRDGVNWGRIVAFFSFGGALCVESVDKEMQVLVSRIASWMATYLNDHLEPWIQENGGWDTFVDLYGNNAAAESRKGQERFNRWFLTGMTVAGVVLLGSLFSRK

Q: For `CN(C)CC[C@H](CSc1ccccc1)Nc1ccc(S(=O)(=O)NC(=O)c2ccc(N3CCN(Cc4ccccc4-c4ccc(Cl)cc4)CC3)cc2)cc1[N+](=O)[O-]` [ABT-737], which “dose-limiting toxicity in human patients” value [1] is on record?
A: dose-limiting thrombocytopenia

Q: Which “Bcl-xL binding to BIM when Mcl-1 is inhibited (co-IP)” value (BIM-Bcl-xL interactions; S-63845 at 1 uM and 10 uM) does the source give for `Cc1c(-c2c(-c3ccc(F)o3)sc3ncnc(O[C@H](Cc4ccccc4OCc4ccnn4CC(F)(F)F)C(=O)O)c23)ccc(OCCN2CCN(C)CC2)c1Cl` [Compound S-63845] here?
A: Bcl-xL appeared to compensate for BIM binding

Q: Which results are given for `Cc1c(C(=O)O)c(-c2cccc(N3CCN(c4ccc(NS(=O)(=O)c5ccc(N[C@H](CCN6CCC(OP(=O)(O)O)CC6)CSc6ccccc6)c(S(=O)(=O)C(F)(F)F)c5)cc4)CC3)c2)c(-c2ccc(Cl)cc2)n1C(C)C` [Compound 1]?
A: BIM-Bcl-xL interactions (co-IP) (BIM-Bcl-xL interactions; OA-dosed mouse lungs (8 hours) and MBE cells (4 hours)): blocked; Mcl-1 binding to BIM (co-IP) (Mcl-1 binding to BIM): compensatory Mcl-1 binding to BIM was observed
